From patent US9353048B2, “Compound as KCNQ potassium channel agonist, preparation method therefor and use thereof” (SHANGHAI INSTITUTE OF MATERIA MEDICA, CHINESE ACADEMY OF …, priority 2011, dated 2016)
Several values for one entry are separate records, joined by “and”; a condition that tells them apart may be missing. Identical values can stand only once. Entries after “also recorded” stand apart in the source; their conditions may differ. Counter-ions that a name gives are not always drawn. Marks after values point to notes of the source that are not given here.

Columns and labels:
[1] = Solubility in water (treatment of samples)
KCNQ channels = test: Whole-cell voltage-clamp electrophysiological recording in CHO cells transfected with KCNQ channels; format: cell-based; details: for I/I0: activation multiple, maximum induced current at −10 mV testing voltage after administration (10 μM) vs before, >1 activating, <1 inhibiting; for ΔV1/2: shift of V1/2 of current activation curve, negative sign = left-ward shift, CHO cells
Protocol: The formulation of culture fluid for Chinese hamster […] (CHO) (Culture Collection of Chinese Academy of Sciences): 50/50 DMEM/F-12 (Cellgro, Mamassas, Va.), 10% fetal bovine serum (FBS) (Gibco, Australia) and 2 mM […] (Invitrogen). […] Lipofectamine2000™ agent (Invitrogen) was used for Transfection according to the protocol thereof. […] After cotransfection with GFP (green fluorescent protein), transfected cells could be determined under a fluorescence microscopy.
Whole-cell voltage-clamp recording was performed by using Axopatch-200B amplifier (Molecular Devices, Sunnyvale, Calif.) at room temperature. Borosilicate glass capillary tubes (World Precision Instruments, Sarasota, Fla.) were drawn into electrodes. The electric resistance of the electrodes filled with an intracellular fluid is 3 to 5 MΩ. […] During the recording, an extracellular fluid was continuously perfused by using a BPS perfusion system (ALA Scientific Instruments, Westburg, N.Y.). The formulation of the extracellular fluid was as follows: 140 mM NaCl, 5 mM KCl, 2 mM CaCl2, 1.5 mM MgCl2, 10 mM HEPES and 10 mM glucose (the pH value of the extracellular fluid was adjusted to 7.4 with NaOH). […] Resistors were connected in series to compensate 60 to 80% of signal loss. At present, multivoltage scheme was generally adopted, wherein the clamp voltage was set at −100 mV. Current was induced in cells by a series of 2000 ms stimulating voltage (from −90 mV up to +50 mV, with interval of 10 mV).
In the following table, V1/2 is the voltage at which 50% of cells were activated, ΔV1/2 is amount of a left-ward shift of V1/2, negative sign (−) represents a left-ward shift of the current activation curve and positive sign (+) represents a right-ward shift of the curve. I/I0 is the activation multiple, wherein, I0 is the maximum induced current produced under stimulation of −10 mV testing voltage, I is the maximum induced current produced under stimulation of −10 mV testing voltage after administration (10 μM), I/I0>1 represents activating activity, and I/I0<1 represents inhibiting activity. N is the number of tested cells. NT represents non-tested.

[2] = system: Convulsion Induced by Pentylenetetrazole (PTZ); test: Convulsion induced by pentylenetetrazole (PTZ), compounds by gastric lavage, C57BL/6J mice; format: in vivo; details: 30 mg/kg gastric lavage; for Latency period of clonus / Latency period of whole-body tonic seizures / Mortality rate / Incidence rate of convulsion: PTZ 80 mg/kg s.c. 1 h later; for Incidence rate of convulsion: observed 60 min; for anti-convulsive effect (in words): PTZ-induced convulsion
Protocol: The compounds to be tested were administrated to animals by gastric lavage (30 mg/kg); one hour later, pentylenetetrazole was administrated by subcutaneous injection (PTZ 80 mg/kg); and response of animals were observed within a period of 60 min.

in vivo = details: mouse, 20 mg/kg
Protocol: Two hours after administration, animal were fed uniformly. Specific arrangement was as following table.
After administration by gastric lavage or intravenous injection, mice were sacrificed by cutting abdominal aorta at time points set as the above with 3 mice for each time point. 0.5 mL of whole blood was collected for each animal, placed into a heparinized test tube and subjected to centrifugation at 3000 rpm to separate plasma, which was then cryopreserved in a −20° C. refrigerator. After the animals were sacrificed, their whole brain was collected, washed with ice-cooled physiological saline to remove residual blood. Then the residual liquid was absorbed to dryness. The treated brain was labeled and cryopreserved in a −20° C. refrigerator.

[3] = system: Animal Models Induced by MES (Maximum Electroshock); test: MES test, compounds by intraperitoneal injection, KM mice; format: in vivo; details: 10 mg/kg i.p.; for Mortality rate / Incidence of convulsion: MES 30 min later; for Incidence of convulsion: tonic hind limb extension
Source text: (§1) One time of electrical stimulation was applied to animals through ear clip electrodes, and a convulsion characterized by a tonic hind limb extension was observed. One day before the test, animals were screened in the above procedure to record the values of MES.

[4] = system: Animal Models Induced by MES; test: MES test, compounds orally administrated (gastric lavage), KM mice; format: in vivo; details: for Incidence rate of convulsion / Protection rate of compounds: 30 mg/kg gastric lavage, MES 1 hour later; for effect in MES test (in words): gastric lavage
Protocol: as §1
1 hour later, MES was applied according to parameters set the last day, and response of animals were observed and recorded immediately.

[5] = system: Animal Models Induced by PTZ; test: PTZ test, compounds orally administrated (gastric lavage), KM mice; details: for Incidence of tonic fore limb extension / Incidence of tonic hind limb extension / Latency period of clonus / Latency period of fore limb extension / Mortality rate / Incidence rate of clonus: 30 mg/kg gastric lavage; for Incidence rate of clonus: PTZ 100 mg/kg s.c. 1 h later, observation 1 h; for effect in PTZ test (in words): gastric lavage
Protocol: Response of animals were observed immediately and recorded within a period of 1 h.

[6] = system: Animal Models Induced by PTZ (Pentylenetetrazole); test: PTZ test, compounds by intraperitoneal injection, KM mice; format: in vivo; details: for Incidence rate of convulsion: PTZ 100 mg/kg s.c. 30 min later, observation 1 h
Protocol: Compounds to be tested were administrated by intraperitoneal injection (10 mg/kg, 5 mg/kg, 2.5 mg/kg, 0.1 ml/10 g).

For `C#CCN(Cc1ccc(F)cc1)c1ccc(NC(=O)OC)cc1` [Compound K9, methyl 4-(N-parafluorobenzyl-N-propargyl-imino)-aniline formate], the “solubility in water (in words)” value [1] was “can not be easily dissolved in water”, the I/I0 (KCNQ channels) was 3.27 ± 0.10 and the ΔV1/2 (KCNQ channels) was −24.21 ± 2.4 mV. The “Latency period of clonus” value [2] was 351 ± 84.3 s, the “Latency period of whole-body tonic seizures” value [2] was 1382 ± 339 s and the Mortality rate [2] was 4/10. The “Incidence rate of convulsion” value [2] was 4/10, the “anti-convulsive effect (in words)” value [2] was “comparable anti-convulsive effect” and the Kp (in vivo; male, KM) was 1.9. It also gave a bioavailability (in vivo; male, KM) of 26%, an AUC(0-t) (in vivo; male, KM, iv) of 7180 ng·h/mL and a Kp (in vivo; male, KM, iv) of 1.5. For the same compound, the clearance (in vivo; male, KM, iv) was 46.3 mL/min/kg, the AUC(0-t) (in vivo; male, KM, po) was 1860 ng·h/mL and the Cmax (in vivo; male, KM, po) was 2200 ng/mL and 4420 ng/g. For the same compound, the half-life (in vivo; male, KM, po) was roughly 1.2 h, the “area under the concentration-time curve (AUC0-t) in brain tissue” value (in vivo) was 3565 ng·h/g and the “area under the concentration-time curve (AUC0-t) of brain tissue” value (in vivo; iv) was 10694 ng·h/g.

With `C#CCN(Cc1ccc(F)cc1)c1ccc(NC(=O)OCC)c(N)c1` [Compound K21, ethyl 2-amino-4-(N-parafluorobenzyl-N-propargyl-imino)-aniline formate] the “solubility in water (in words)” value [1] was “can not be easily dissolved in water”, the I/I0 (KCNQ channels) was 1.53 ± 0.15 and the ΔV1/2 (KCNQ channels) was −47.9 ± 3.5 mV. For the same compound, the “grand mal seizure in MES test (in words)” value [3] was “completely avoided the grand mal seizure”, the Mortality rate [3] was 0 and the Incidence of convulsion [3] was 2/10***. For the same compound, the “Incidence rate of convulsion” value [4] was 2/13***, the “Protection rate of compounds” value [4] was 84.6%*** and the “effect in MES test (in words)” value [4] was “significantly inhibiting the incidence of the grand mal seizure”. The “Incidence of tonic fore limb extension” value [5] was 5/12, the “Incidence of tonic hind limb extension” value [5] was 0/12** and the “Latency period of clonus” value [5] was 148 ± 37 s. For the same compound, the “Latency period of fore limb extension” value [5] was 1561 ± 690 s, the Mortality rate [5] was 3/12 and the “Incidence rate of clonus” value [5] was 12/12. For the same compound, the “effect in PTZ test (in words)” value [5] was “significantly inhibit tonic seizures”, the “Incidence of tonic fore limb extension” value ([6]; 2.5 mg/kg i.p.) was 2/10 and the “Incidence of tonic hind limb extension” value ([6]; 2.5 mg/kg i.p.) was 0/10***. For the same compound, the “Latency period of clonus” value ([6]; 2.5 mg/kg i.p.) was 184 ± 42 s, the Mortality rate ([6]; 2.5 mg/kg i.p.) was 1/10** and the “Incidence rate of convulsion” value ([6]; 2.5 mg/kg i.p.) was 9/10. The “Incidence of tonic fore limb extension” value ([6]; 5 mg/kg i.p.) was 3/10, the “Incidence of tonic hind limb extension” value ([6]; 5 mg/kg i.p.) was 0/10*** and the “Latency period of clonus” value ([6]; 5 mg/kg i.p.) was 238 ± 54 s. For the same compound, the Mortality rate ([6]; 5 mg/kg i.p.) was 1/10**, the “Incidence rate of convulsion” value ([6]; 5 mg/kg i.p.) was 10/10 and the “Incidence of tonic hind limb extension” value ([6]; 10 mg/kg i.p.) was 0/12***. For the same compound, the Mortality rate ([6]; 10 mg/kg i.p.) was 0/12***, the “Incidence rate of convulsion” value ([6]; 10 mg/kg i.p.) was 12/12 and the sedative effect ([6]; intraperitoneal injection) was “some sedative effect”. For the same compound, the “anti-convulsive effect compared with retigabine (in words)” value ([6]; intraperitoneal injection, same dosage, PTZ and MES tests) was “slightly stronger than that of retigabine”.

With `CCOC(=O)Nc1ccc(NCc2ccc(F)cc2)cc1N` [Retigabine, retigabine, reference compound] the “solubility in water (in words)” value [1] was “can be easily dissolved in water”, the Mortality rate [3] was 0 and the Incidence of convulsion [3] was 4/11**. For the same compound, the “Incidence rate of convulsion” value [4] was 5/13***, the “Protection rate of compounds” value [4] was 61.5%*** and the “effect in MES test (in words)” value [4] was “significantly inhibiting the incidence of the grand mal seizure; also recorded: comparable effect”. For the same compound, the “Incidence of tonic fore limb extension” value [5] was 3/12**, the “Incidence of tonic hind limb extension” value [5] was 0/12** and the “Latency period of clonus” value [5] was 177 ± 70 s. The “Latency period of fore limb extension” value [5] was 1063 ± 284 s, the Mortality rate [5] was 0/12** and the “Incidence rate of clonus” value [5] was 12/12. For the same compound, the “effect in PTZ test (in words)” value [5] was “obviously reduce the incidence rate of convulsion and mortality rate; also recorded: significantly reduce the incidence rate of convulsion and mortality rate”, the “Latency period of clonus” value [2] was “No typical” and the “Latency period of whole-body tonic seizures” value [2] was 1472 ± 961 s. For the same compound, the Mortality rate [2] was 4/10, the “Incidence rate of convulsion” value [2] was 5/10 and the “anti-convulsive effect (in words)” value [2] was “comparable anti-convulsive effect”. For the same compound, the “behaviour of animals after administration” value ([2]; returned to normal after 20 min) was “quite and less active”, the “Incidence of tonic fore limb extension” value ([6]; 2.5 mg/kg i.p.) was 5/10 and the “Incidence of tonic hind limb extension” value ([6]; 2.5 mg/kg i.p.) was 1/10**. The “Latency period of clonus” value ([6]; 2.5 mg/kg i.p.) was 179 ± 60 s, the “Latency period of tonic hind limb” value ([6]; 2.5 mg/kg i.p.) was 827 s and the Mortality rate ([6]; 2.5 mg/kg i.p.) was 7/10. The “Incidence rate of convulsion” value ([6]; 2.5 mg/kg i.p.) was 10/10, the “Incidence of tonic fore limb extension” value ([6]; 5 mg/kg i.p.) was 4/10 and the “Incidence of tonic hind limb extension” value ([6]; 5 mg/kg i.p.) was 2/10*. For the same compound, the “Latency period of clonus” value ([6]; 5 mg/kg i.p.) was 184 ± 40 s, the “Latency period of tonic hind limb” value ([6]; 5 mg/kg i.p.) was 883 ± 151 s and the Mortality rate ([6]; 5 mg/kg i.p.) was 5/10. The “Incidence rate of convulsion” value ([6]; 5 mg/kg i.p.) was 10/10, the “Incidence of tonic hind limb extension” value ([6]; 10 mg/kg i.p.) was 4/12* and the “Latency period of clonus” value ([6]; 10 mg/kg i.p.) was 239 ± 113 s. For the same compound, the “Latency period of tonic hind limb” value ([6]; 10 mg/kg i.p.) was 1100 ± 319 s, the Mortality rate ([6]; 10 mg/kg i.p.) was 2/12** and the “Incidence rate of convulsion” value ([6]; 10 mg/kg i.p.) was 10/10. The sedative effect ([6]; intraperitoneal injection) was “some sedative effect”.
